The results in this text go back to US6900202B2, “Di-substituted imineheterocyclic compounds” (priority 2000, dated 2005).

SMILES strings stand for the structures.

Assay [1] addresses T1, α4β2 subtype of nicotinic acetylcholine receptors (Rattus norvegicus, UniProt P09483+P12390).
T1 construct: examined using rat brain membrane obtained from whole homogenized brain; from tissue; host or cells: whole brain membranes of Fischer-344 male rats
As to the kind of experiment: Binding assay at α4β2 subtype of nicotinic acetylcholine receptors ([3H]-cytisine, rat brain membrane). From the text: (§1) The methods for evaluating the binding capabilities of the compounds against nicotinic acetylcholine receptors are different by subtypes of receptors. The binding capabilities of the compounds at α4β2 nicotinic acetylcholine receptors are examined using rat brain membrane obtained from whole homogenized brain, and determining the inhibiting rate of the compounds against [^3H]-cytisine binding to said brain membrane. Furthermore, the binding capabilities of the compounds at α1β1γδ nicotinic acetylcholine receptors are examined using homogenized rat muscle, and determining the inhibiting rate of the compounds against [^3H]-α-bungarotoxin binding to said muscle membrane.
Binding Assays at α4β2 Subtype of Nicotinic Acetylcholine Receptors
The affinity of the compounds of the present invention to α4β2 subunit of nicotinic acetylcholine receptors was performed by the following method, which was modified method described by Pabreza L. A., Dhawan S. & Kellar K. J., Mol. Pharm., 39, 9-12 (1990), and by Anderson D. J. & Arneric S. P., Eur. J. Pharm., 253, 261-267 (1994).
(1) Preparation of Rat Brain Membrane Containing α4β2 subtype of Nicotinic Acetylcholine Receptors
Fischer-344 strain male rats (body weight: 200-240 g; 9 weeks old) obtained from Charles River Japan were used. Rats were housed in the breeding cage controlled of the room temperature at 23±1° C., and the humidity of 55±5% for 1 to 4 weeks. Rats (3 to 4 rats per a cage) were housed with lights on for 12 hours daily (from 7:00 to 19:00), and allowed free access to food and water.
Preparation of rat brain membrane containing α4β2 subtype of nicotinic acetylcholine receptors was performed as follow. That is, rat brains were isolated just after sacrificed by decapitation, washed with ice-cooled saline solution and then frozen at −80° C. with liquid nitrogen and stored till using. After thawing the frozen brain, the brain was homogenized in 10 volumes of buffer solution (50 mM of Tris-HCl, 120 mM of NaCl, 5 mM of KCl, 1 mM of MgCl2, 2mM of CaCl2; pH 7.4; 4° C.) using homogenizer (HG30, Hitachi Kohki Ltd.) for 30 seconds, and the homogenate were centrifuged under 1,000×G for 10 minutes at 4° C. The resulting supernatant was separated and the pellet was homogenized again with half volume of aforementioned prior buffer solution and centrifuged under the same conditions. Combined supernatant was further centrifuged under 40,000×G for 20 minutes at 4° C. The pellet was suspended in buffer solution and used for binding assays at receptors.
(2) Experiments of α4β2 Subtype of Nicotinic Acetylcholine Receptors Binding
Suspensions of membrane pellets containing 400-600 μg of protein were added to test tubes containing test compounds and [^3H]-cytisine (2 nM) in a final volume of 200 μl and incubated for 75 minutes in ice-cooled bath. The samples were isolated by vacuum filtration onto Whatman GF/B filters, which were prerinsed with 0.5% polyethylenimine just prior to sample filtration, using Brandel multi manifold cell harvester. The filters were rapidly washed with buffer solution (3×1 ml). The filters were counted in 3 ml of clearsol I (Nacalai Tesque Inc.).
The analyses of the experimental results were conducted by using the Accufit Competition Program (Beckman Ltd.).

Assay [2] has as its target T2, α1β1γδ subtype of nicotinic acetylcholine receptors (Rattus norvegicus, UniProt P18916+P25108+P25109+P25110).
T2 construct: The centrifugation at 100,000×G for 60 minutes at 4° C. yielded the rat muscle extract as supernatant
Briefly: biochemical. It counts as binding.
From the text: as §1
Binding Assays at α1β1γδ Subtype of Nicotinic Acetylcholine Receptors
The affinity of the compounds of the present invention to α1β1γδ subtype of nicotinic acetylcholine receptors was measured by the following method, which was modified method described by Garcha H. S., Thomas P., Spivak C.
(1) Preparation of Rat Skeletal Muscles Containing α1β1γδ Subtype of Nicotinic Acetylcholine Receptors
The substantially same animals described in the Biological Experiment 1 were used.
The isolation of α1β1γδ subtype of nicotinic acetylcholine receptors was performed as follow. That is, rat posterior skeletal muscles were isolated just after sacrificed by decapitation, washed with ice-cooled saline solution and then frozen at −80° C. with liquid nitrogen and stored till using. After thawing the frozen muscles, tissue was homogenized (40% w/v) with buffer solution [2.5 mM of sodium phosphate buffer (pH:7.2), 90 mM of NaCl, 2 mM of KCl, 1 mM of EDTA, 2 mM of benzamidine, 0.1 mM of benzethonium chloride, 0.1 mM of PMSF, 0.01% of sodium azide] in Waring blender [Waring blender 34BL97; WARING PRODUCTS DIVISION DYNAMICS CORPORATION OF AMERICA) for 60 seconds. The homogenate were centrifuged under 20,000×G for 60 minutes at 4° C. The supernatant was separated and the resulting pellet was added to the same buffer (1.5 ml/g wet weight), and homogenized under the same conditions. Triton X100 (2% w/v) was added and the mixture was stirred for 3 hours at 4° C. The centrifugation at 100,000×G for 60 minutes at 4° C. yielded the rat muscle extract as supernatant. This was stored at 4° C. for up to 4 weeks, and used for binding assays at receptors.
(2) Experiments of α1β1γδ Subtype of Nicotinic Acetylcholine Receptors Binding
Receptors binding experiments were performed as follow. That is, the extract of rat muscle containing 600-900 μg of protein was added to test tubes containing test compounds and incubated for 15 minutes at 37° C. Then, to this mixture was added 1 nM of [^3H]-α-bungarotoxin (α-Bgt) and further incubated for 2 hours. The samples were isolated by vacuum filtration onto Whatman GF/B filters, which were prerinsed with 0.5% polyethylenimine just prior to sample filtration, using Brandel multi manifold cell harvester. The filters were rapidly rinsed with washing solution (10 mM of KH2PO4, 150 mM of NaCl, pH 7.2, room temperature) (5×1 ml). The filters were counted in 3 ml of clearsol I (Nacalai Tesque Inc.). The determination of nonspecific binding was incubated in the presence of 1 μM α-Bgt. […] In the receptor binding experiments, said buffer solution was added for adjusting the final concentration of BSA to be 0.05%.
The analyses of the experimental results were conducted by as described in the Biological Experiment 1.

Assay [3] has as its target T3, human α4β2 subtype of nicotinic acetylcholine receptors (Homo sapiens, UniProt P17787+P43681).
T3 construct: expressed in transfected cells; host or cells: Xenopus laevis oocytes injected with hnACh-R α4 and β2 cRNA (pSP64 polyA vector)
The assay is classed as cell-based. The method, then: The agonist effect in human α4β2 subtype of nicotinic acetylcholine receptors are examined by using human nicotinic acetylcholine receptors prepared in oocytes of Xenopus laevis, which is injected with cRNA from the corresponding cloning cDNA of human α4 and β2 subunits of nicotinic acetylcholine receptors, and to measure the expression of the electric response by adding the test compounds to perfusion solution by means of membrane potential holding method.
Agonist Activities at Human α4β2 Subtype of Nicotinic Acetylcholine Receptors
The agonist activities of the compounds of the present invention at human α4β2 subtype of nicotinic acetylcholine receptors was evaluated by the following method, which was modified method described by Papke R. L., Thinschmidt J. S., Moulton B. A., Meyer E. M. & Poirier A., Br. J. Pharmacol., 120, 429-438 (1997).
(1) Preparation of cRNA of Human α4β2 Subtype of Nicotinic Acetylcholine Receptors
The cloning of human nicotinic acetylcholine receptor (hnACh-R) α4 cDNA and hnAC-R β2 cDNA were performed, in accordance with the conventional manners, by synthesizing the each DNA primers corresponding to the sequences of hnACh-R α4 cDNA and hnACh-R β2 cDNA [Monteggia L. M. et al., Gene, 155, 189-193 (1995); and Anand R., & Lindstrom J., Nucl. Acids Res., 18, 4272 (1990)], and obtained hnACh-R α4 cDNA and hnACh-R β2 cDNA by polymerase chain reaction (PCR), respectively. The obtained hnACh-R α4 cDNA and hnACh-R β2 cDNA were inserted to the cRNA expression vector (pSP64 polyA) having SP6 RNA promoter to construct hnACh-R α4/pSP64 polyA and hnACh-R β2/pSP64 polyA, respectively. After cutting from expression vector by restriction enzyme (EcoRI), transcription was performed by affecting SP6 RNA polymerase in the presence of cap analogues to obtain hnACh-R α4 cRNA and hnACh-R β2 cRNA, respectively.
(2) Expression of Human α4β2 Subtype Nicotinic Acetylcholine Receptors in Xenopus Oocytes
Oocytes were purchased from Kitanihonseibustukyohzai Co., Ltd., which were already enucleated from Xenopus laevis, and used in this experiment.
The oocytes were treated with collagenase (Sigma type I; 1 mg/ml) in calcium-free modified Birth's solution (88 mM of NaCl, 1 mM of KCl, 2.4 mM of NaHCO3, 0.82 mM of MgSO4, 15 mM of HEPES, pH 7.6) under gently stirring at the room temperature for 90 minutes, and washed out the enzyme from the tissue. Then, oocytes were separated from ovarian follicle by tweezers, and isolated oocytes were placed in antibiotics containing modified Birth's solution (88 mM of NaCl, 1 mM of KCl, 2.4 mM of NaHCO3, 0.82 mM of MgSO4, 15 mM of HEPES, pH 7.6, and 0.1 v/v % of mixture solution containing of penicillin and streptomycin for incubation; Sigma Co.). Thus treated oocytes were injected with 50 nl of adjusted cRNAs (1.0 mg/ml), that is, each 50 ng of hnACh-R α4 cRNA and hnACh-R β2 cRNA per 1 oocyte by using automatic injector (NANOJECT; DRUMMOND […] CO.), and further incubated for 4-14 days at 19° C. In oocytes, heterogeneous quintuple [(α4)2(β2)3] was composed by translation of injected cRNAs, and ion channel receptors were constructed on cell membrane.
(3) Agonist Activities at Human α4β2 Subtype of Nicotinic Acetylcholine Receptors
The recordings of responses at human α4β2 subtype of nicotinic acetylcholine receptors by means of membrane potential holding method were performed as follow. […] Test compounds were added to the perfusion solution, and recorded the peak strength of induced inward electric current. […]

T1 sequence (P09483 31-630): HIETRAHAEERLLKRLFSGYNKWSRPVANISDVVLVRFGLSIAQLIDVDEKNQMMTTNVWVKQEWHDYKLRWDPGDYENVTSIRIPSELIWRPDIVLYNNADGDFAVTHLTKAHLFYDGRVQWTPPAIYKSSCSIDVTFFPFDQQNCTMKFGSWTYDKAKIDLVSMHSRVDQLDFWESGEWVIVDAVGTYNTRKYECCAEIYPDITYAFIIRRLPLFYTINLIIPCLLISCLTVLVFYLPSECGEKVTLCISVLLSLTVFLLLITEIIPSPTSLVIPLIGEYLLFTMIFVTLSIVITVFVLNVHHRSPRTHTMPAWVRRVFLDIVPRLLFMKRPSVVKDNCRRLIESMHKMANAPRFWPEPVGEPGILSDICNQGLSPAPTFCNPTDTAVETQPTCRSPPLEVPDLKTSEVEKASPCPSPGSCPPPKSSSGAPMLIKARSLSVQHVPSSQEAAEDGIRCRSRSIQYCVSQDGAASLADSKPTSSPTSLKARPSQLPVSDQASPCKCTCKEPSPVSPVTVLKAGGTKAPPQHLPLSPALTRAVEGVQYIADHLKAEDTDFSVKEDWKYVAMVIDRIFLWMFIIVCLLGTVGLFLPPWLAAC
T1 sequence (P12390 25-500): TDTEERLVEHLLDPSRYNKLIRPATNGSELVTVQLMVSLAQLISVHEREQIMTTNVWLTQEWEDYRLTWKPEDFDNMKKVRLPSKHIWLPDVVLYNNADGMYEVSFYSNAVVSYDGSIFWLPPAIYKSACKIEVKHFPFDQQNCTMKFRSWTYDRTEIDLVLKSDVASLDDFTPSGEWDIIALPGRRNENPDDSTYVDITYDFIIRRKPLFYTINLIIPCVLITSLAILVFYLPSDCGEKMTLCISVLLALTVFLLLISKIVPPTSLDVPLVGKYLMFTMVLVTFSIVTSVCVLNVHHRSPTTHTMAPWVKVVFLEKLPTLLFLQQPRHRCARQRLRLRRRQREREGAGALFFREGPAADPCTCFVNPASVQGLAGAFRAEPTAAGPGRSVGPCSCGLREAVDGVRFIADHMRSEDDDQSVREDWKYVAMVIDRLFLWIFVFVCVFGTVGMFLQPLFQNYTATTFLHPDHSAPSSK
T3 sequence (P43681 29-627 limits assumed): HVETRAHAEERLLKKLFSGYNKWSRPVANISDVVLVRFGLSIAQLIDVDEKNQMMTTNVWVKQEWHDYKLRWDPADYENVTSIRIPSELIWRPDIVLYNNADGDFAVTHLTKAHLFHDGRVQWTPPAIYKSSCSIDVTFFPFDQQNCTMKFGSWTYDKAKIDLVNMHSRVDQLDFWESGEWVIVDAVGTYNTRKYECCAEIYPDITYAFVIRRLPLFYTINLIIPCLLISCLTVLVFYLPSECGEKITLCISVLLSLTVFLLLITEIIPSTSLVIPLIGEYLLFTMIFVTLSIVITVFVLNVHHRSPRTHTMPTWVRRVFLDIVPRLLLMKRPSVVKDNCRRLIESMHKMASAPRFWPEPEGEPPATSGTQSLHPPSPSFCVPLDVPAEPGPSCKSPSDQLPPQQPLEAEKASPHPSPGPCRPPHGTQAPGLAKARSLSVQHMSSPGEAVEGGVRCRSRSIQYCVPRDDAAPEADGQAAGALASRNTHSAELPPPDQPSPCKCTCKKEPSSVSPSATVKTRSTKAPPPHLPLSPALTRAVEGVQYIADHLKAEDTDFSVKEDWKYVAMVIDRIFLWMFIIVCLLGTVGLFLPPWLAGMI
T3 sequence (P17787 26-502): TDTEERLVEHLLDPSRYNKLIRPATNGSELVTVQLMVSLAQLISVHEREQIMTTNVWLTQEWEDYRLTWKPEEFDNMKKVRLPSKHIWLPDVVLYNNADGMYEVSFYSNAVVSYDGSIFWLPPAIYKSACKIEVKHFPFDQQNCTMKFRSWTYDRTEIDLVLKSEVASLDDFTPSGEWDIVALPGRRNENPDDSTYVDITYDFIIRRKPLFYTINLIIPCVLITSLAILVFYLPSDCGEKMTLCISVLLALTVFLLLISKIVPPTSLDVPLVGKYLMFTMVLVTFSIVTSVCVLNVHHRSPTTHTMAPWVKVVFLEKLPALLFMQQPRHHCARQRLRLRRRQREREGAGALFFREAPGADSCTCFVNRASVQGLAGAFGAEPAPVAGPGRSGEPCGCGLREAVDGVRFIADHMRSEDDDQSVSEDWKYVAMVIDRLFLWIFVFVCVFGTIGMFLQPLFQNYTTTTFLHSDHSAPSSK
T2 sequence (P25108 21-457): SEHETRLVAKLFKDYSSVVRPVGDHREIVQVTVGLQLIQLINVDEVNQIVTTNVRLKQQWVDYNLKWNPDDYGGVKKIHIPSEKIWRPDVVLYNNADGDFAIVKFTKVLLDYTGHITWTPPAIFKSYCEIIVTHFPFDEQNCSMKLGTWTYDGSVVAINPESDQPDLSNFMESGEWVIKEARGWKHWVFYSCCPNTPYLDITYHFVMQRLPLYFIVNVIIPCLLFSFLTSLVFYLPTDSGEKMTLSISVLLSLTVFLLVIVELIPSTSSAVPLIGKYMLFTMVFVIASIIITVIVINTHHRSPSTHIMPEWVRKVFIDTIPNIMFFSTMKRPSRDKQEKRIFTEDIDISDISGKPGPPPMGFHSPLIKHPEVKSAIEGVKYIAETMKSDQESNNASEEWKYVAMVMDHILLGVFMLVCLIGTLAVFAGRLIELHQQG
T2 sequence (P25109 24-501): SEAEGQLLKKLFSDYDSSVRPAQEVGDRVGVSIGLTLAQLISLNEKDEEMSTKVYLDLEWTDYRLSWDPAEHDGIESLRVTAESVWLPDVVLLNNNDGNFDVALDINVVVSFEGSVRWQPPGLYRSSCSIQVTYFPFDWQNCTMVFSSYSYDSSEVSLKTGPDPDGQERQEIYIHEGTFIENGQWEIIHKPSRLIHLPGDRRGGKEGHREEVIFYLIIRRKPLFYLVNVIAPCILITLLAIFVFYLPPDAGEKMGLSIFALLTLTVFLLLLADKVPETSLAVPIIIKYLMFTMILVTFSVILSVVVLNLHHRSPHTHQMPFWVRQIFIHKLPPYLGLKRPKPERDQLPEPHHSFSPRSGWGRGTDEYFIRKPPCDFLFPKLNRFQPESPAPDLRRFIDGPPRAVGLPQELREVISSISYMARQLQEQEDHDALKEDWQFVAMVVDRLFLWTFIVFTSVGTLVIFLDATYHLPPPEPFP
T2 sequence (P25110 22-517): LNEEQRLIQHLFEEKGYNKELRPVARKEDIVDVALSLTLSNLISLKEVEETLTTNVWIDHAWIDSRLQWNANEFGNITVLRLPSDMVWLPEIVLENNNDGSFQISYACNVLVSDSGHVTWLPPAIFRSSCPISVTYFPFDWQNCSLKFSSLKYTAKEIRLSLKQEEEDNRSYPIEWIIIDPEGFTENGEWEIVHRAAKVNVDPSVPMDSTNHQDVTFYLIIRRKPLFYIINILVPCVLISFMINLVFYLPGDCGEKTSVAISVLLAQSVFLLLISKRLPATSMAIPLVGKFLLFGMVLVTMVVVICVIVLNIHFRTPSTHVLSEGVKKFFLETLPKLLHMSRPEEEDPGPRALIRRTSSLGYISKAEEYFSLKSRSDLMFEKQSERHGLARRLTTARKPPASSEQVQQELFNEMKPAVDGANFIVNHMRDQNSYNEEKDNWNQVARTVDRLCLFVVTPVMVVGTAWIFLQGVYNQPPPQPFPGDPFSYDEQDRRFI

Consider `Clc1ccc(CC/N=C2\SCCN2Cc2ccc(Cl)nc2)cn1` [Compound 15, 3-(6-chloro-3-pyridyl)methyl-2-[2-(6-chloro-3-pyridyl)ethyl]iminothiazolidine], for which the Ki worked out at 0.086 µM in assay [1] and 479 µM in assay [2].
`CN1CCCC1c1cccnc1` (single isomer, unassigned; (-)) [Nicotine, (−)-nicotine, reference compound] came in with an Agonist effect in assay [3] of 146%.
